Patent US5534536A, “Fused phenol derivatives” (Ono Pharmaceuticals Co. Ltd., priority 1993, dated 1996)
Structures can show the parent of a compound that is named as a salt.

Tests used:
[1] = tested on: lipid peroxides (TBARS) in rat liver homogenate; experiment: Antioxidant action (lipid peroxides as TBARS in rat liver homogenate); assay type: biochemical, Sprague-Dawley rat; details: FeCl2-initiated, 1 hr at 37° C.
Method: Male Sprague-Dawley rat fasted overnight was anesthetized with diethyl ether, and liver was perfused, isolated and homogenized with 1.15% KCl (10% homogenate). The assay mixture contained 200 μl of liver homogenate, 5 μl of test compound and 10 μl of 4.4 mM FeCl2. The reaction was initiated by the addition of FeCl2, and the incubation was carried out for 1 hr at 37° C. The amounts of lipid peroxides produced during this incubation period were determined as thiobarbituric acid reactive substances (TBARS) according to the method described by OHKAWA et. al. (Analytical Biochemistry, 95, 351-358, 1979). The effects of compounds tested were expressed as percentage inhibition against the amounts of TBARS produced in vehicle (50% ethanol solution)-treated group.

human 5-lipoxygenase = biological target: T1, human 5-lipoxygenase (Homo sapiens, UniProt P09917); experiment: Effect on human 5-lipoxygenase activity (cytosol fraction of polymorphonuclear leukocytes); assay type: biochemical; details: human PMN leukocyte cytosol fraction; 14C-arachidonic acid; 30° C., 1 min, pH 7.4
T1 construct: cytosol fraction of polymorphonuclear leukocytes prepared from human peripheral blood; endogenous in cells; host or cells: polymorphonuclear leukocytes from human peripheral blood (cytosol fraction)
T1 sequence (P09917 1-674): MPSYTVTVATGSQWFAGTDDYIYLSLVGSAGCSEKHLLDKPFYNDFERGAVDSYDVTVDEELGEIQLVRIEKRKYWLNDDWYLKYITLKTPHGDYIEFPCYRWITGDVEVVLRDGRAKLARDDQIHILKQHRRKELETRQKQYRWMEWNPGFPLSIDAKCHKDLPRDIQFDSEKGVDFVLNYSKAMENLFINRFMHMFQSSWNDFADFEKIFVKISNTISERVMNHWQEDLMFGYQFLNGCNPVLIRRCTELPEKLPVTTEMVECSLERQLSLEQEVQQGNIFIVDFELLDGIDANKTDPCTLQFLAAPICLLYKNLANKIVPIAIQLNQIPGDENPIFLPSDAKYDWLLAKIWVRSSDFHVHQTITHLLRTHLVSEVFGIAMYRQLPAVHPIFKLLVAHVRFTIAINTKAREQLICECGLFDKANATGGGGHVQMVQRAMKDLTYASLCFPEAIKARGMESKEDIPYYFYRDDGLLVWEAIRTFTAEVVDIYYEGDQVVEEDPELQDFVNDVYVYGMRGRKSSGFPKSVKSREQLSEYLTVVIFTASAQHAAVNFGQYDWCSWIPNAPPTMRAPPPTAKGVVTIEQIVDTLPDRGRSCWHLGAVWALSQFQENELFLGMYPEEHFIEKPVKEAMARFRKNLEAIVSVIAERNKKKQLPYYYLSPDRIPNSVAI
Method: i) Effect on human 5-lipoxygenase activity
The assay mixture consisted of 85 μl of potassium/phosphate buffer (pH 7.4) containing 1.18 mM of calcium ion, 5 μl of cytosol fraction of polymorphonuclear leukocytes prepared from human peripheral blood and 5 μl of test compound. The reaction was initiated by the addition of 5 μl of 1 mM ^14 C-arachidonic acid after 5 min equilibration period. The incubation was carried out at 30° C. for 1 min and terminated by the addition of 300 μl of a ice-cold mixture of diethyl ether/methanol/1M citric acid (30/4/1). The mixture was mixed vigorously and centrifuged at 1700 G for 2 min at 4° C. The resultant organic layer was treated with sodium borohydride, kept cold for more than 10 min and then evaporated to dryness under gentle stream of nitrogen. After 200 μl of a mixture of diethyl ether/methanol (30/4) was added to the test tube, the contents were extracted by the addition of 100 μl of 1M citric acid followed by centrifugation (1700 G for 2 min at 4° C.). The products in the upper layer were chromatographed on silica gel thin-layer with a solvent system of diethyl ether/petroleum ether/acetic acid (85/15/0.01) and autoradiographed on X-ray film. The arachidonic acid metabolites and residual substrate were quantified by chromatoscanner. The 5-lipoxygenase activity was calculated by subtracting the conversion rate of total radioactivity into 15-hydroxy eicosatetraenoic acid from total radioactivity. The effect of compounds tested were expressed as percentage inhibition against 5-lipoxygenase activity in the vehicle (50% ethanol solution)-treated group.

[2] = biological target: T2, human thromboxane A2 synthetase (Homo sapiens, UniProt P24557); experiment: Effect on human thromboxane A2 synthetase activity (washed platelets); assay type: cell-based; details: conversion of 14C-arachidonic acid into TXB2, 37° C., 2 min
T2 construct: Washed platelet was prepared from citrate-treated [1/9 (v/v)] human peripheral blood; endogenous in cells; host or cells: washed platelets from human peripheral blood
T2 sequence (P24557 1-533): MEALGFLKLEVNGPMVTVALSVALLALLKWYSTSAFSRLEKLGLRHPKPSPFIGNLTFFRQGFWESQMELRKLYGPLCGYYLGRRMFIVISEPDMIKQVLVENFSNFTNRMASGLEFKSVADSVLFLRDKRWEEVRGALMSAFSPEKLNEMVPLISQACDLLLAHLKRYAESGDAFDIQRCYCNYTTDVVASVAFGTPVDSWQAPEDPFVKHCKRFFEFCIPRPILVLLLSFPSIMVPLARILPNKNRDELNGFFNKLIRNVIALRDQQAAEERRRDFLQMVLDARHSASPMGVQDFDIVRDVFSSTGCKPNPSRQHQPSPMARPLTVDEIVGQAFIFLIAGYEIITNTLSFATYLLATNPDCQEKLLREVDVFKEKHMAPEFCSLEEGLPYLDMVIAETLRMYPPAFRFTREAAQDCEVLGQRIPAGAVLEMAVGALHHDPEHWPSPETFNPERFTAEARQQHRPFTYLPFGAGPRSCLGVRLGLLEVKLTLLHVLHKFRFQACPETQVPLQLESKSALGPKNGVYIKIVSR
Method: ii) Effect on human thromboxane A2 synthetase activity
Washed platelet was prepared from citrate-treated [1/9 (v/v)] human peripheral blood and suspended in Ca^++ -free Krebs-Henseleit solution (pH 7.4) at a concentration of 10.8×10^7 cells/mi. The assay mixture contained 185 μl of cell suspension, 5 μl of test compound and 10 μl of 100 μM ^14 C-arachidonic acid. Before the reaction was started by the addition of ^14 C-arachidonic acid, the other components were equilibrated for 2 min at 37 ° C. The incubation was carried out at 37° C. for 2 min and terminated by the addition of 300 μl of a mixture of diethyl ether/methanol/1M citric acid (30/4/1). The contents were mixed and then centrifuged for 2 min at 1700 G at 4° C. The products in the resultant organic layer were chromatographed on silica gel thin-layer using a solvent system of a mixture of ethyl acetate/isooctane/acetic acid/H2 O (110/50/20/100) and then autoradiographed on X-ray film. The arachidonic acid metabolites and residual substrate were quantified by chromatoscanner. TXA2 synthetase activity was expressed as the conversion rate of total radioactivity into thromboxane B2 (TXB2), a stable metabolite of TXA2. The effects of compounds tested were expressed as percentage inhibition against the conversion rate of total radioactivity into TXB2 in vehicle (50% ethanol solution)-treated group.

[3] = tested on: leukotriene B4 (LTB4) production from human whole blood; experiment: Effect on leukotriene B4 (LTB4) production from human whole blood; assay type: cell-based; details: Ca ionophore A23187 stimulated, plasma LTB4 by EIA
Method: (§1) iii) Effect on leukotriene B4 (LTB4) and TXB2 production from human whole blood […] The incubation was carried out for 5 min and terminated by centrifugation (12,000 rpm for 1-2 min). Resultant plasma was stocked at -70° C. until determination of the levels of LTB4 and TXB2. Plasma levels of LTB4 and TXB2 were determined by commercially available EIA kits (Cayman Chemical Company) following partial purification. The effect of compound tested was expressed as percentage inhibition against the amounts of LTB4 and TXB2 generated in vehicle (50% ethanol solution)-treated group.

[4] = tested on: TXB2 production from human whole blood; experiment: Effect on TXB2 production from human whole blood; assay type: cell-based; details: Ca ionophore A23187 stimulated, plasma TXB2 by EIA
Method: as §1

In the case of `CC1(C)CCc2c(Cn3ccnc3)c(O)c3ccccc3c2O1` [4(e)], the IC50 [1] is reported as 2.6 µM, the IC50 (human 5-lipoxygenase) is reported as 690 nM and the IC50 [2] is reported as 8600 nM.
For `Cc1c(O)c(C(C)C)c2c(c1CCn1ccnc1)OC(C)(C)C2` [Example 2, 5-Hydroxy-2,2,6-trimethyl-4-isopropyl-7(2-(1-imidazolyl)ethyl)-2,3-dihydrobenzofuran hydrochloride], the inhibition at 10 µM [3] was 74% and the inhibition at 10 µM [4] was 92%.
`Cc1c(O)c(C)c2c(c1CCCOc1cccnc1)OC(C)(C)CC2` [Example 11] showed an IC50 [1] of 3.7 µM, an IC50 (human 5-lipoxygenase) of 1100 nM and an IC50 [2] of 550 nM.
With `COC(C)(C)Cc1c(O)c(C)c(CCn2ccnc2)c2c1CC(C)(C)O2` [Example 17] the inhibition at 10 µM [3] was 22% and the inhibition at 10 µM [4] was 36%.
For `COCOc1c(C)c(CCCOc2cccnc2)c2c(c1C)CCC(C)(C)O2` [Example 10], the IC50 [1] was 4 µM, the IC50 (human 5-lipoxygenase) was 480 nM and the IC50 [2] was 1400 nM.
With `Cc1c(O)c(CCCSc2ccccc2)c2c(c1CCn1ccnc1)OC(C)(C)C2` [2(v)] the inhibition at 10 µM [3] was 61% and the inhibition at 10 µM [4] was 89%.
`Cc1c(O)c(CC(C)C)c2c(c1CCn1ccnc1)OC1(CCCC1)C2` [2(x)] showed an inhibition at 10 µM [3] of 70% and an inhibition at 10 µM [4] of 82%.
`Cc1c(O)c(CCCn2ccnc2)cc2c1CC(C)(C)O2` [Example 13] showed an IC50 (human 5-lipoxygenase) of 460 nM and an IC50 [2] of 1000 nM.
